According to patent publication US9365522B2, “Pyrazole amide derivative” (AMGEN INC., priority 2015, dated 2016):

Target: T1, human RORγ-LBD (Homo sapiens, UniProt P51449)
T1 construct: made in house; host or cells: E. coli (BL-21)
T1 sequence (P51449 262-518): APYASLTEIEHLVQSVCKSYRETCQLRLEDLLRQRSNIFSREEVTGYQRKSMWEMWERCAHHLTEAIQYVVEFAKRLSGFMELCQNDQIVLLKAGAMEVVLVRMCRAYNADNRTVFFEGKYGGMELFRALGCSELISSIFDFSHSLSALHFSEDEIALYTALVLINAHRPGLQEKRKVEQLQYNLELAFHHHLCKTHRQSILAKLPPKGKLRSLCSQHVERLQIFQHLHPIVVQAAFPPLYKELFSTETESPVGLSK
Assay: ROR gamma coactivator peptide recruitment Alphascreen assay (RORγ-LBD binding to GRIP1 coactivator peptide)
Assay type: biochemical
Details: 5 nM human RORγ-LBD, 30 nM 7-β-hydroxycholesterol, 50 nM biotinylated GRIP1 coactivator peptide, overnight incubation at room temperature; read-out: result (pIC50, RORγ coactivator peptide recruitment Alphascreen assay) (converted)
Outline: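 His/Flag-tagged human RORγ-LBD (aa 262-518, E. coli-expressed, 5 nM) with agonist 7-β-hydroxycholesterol (30 nM) and biotinylated GRIP1 LXXLL peptide (50 nM) in HEPES pH 7.4 buffer, 2.5% DMSO. Compound 1-in-2 dilutions; Alphascreen bead signal read after overnight incubation at room temperature; pIC50 calculated.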

Row | Structure (SMILES) | IC50 [nM]
1 | CC1(C)C[C@H]1CN(CCc1c(Cl)cncc1Cl)C(=O)c1cnn([C@H]2CC[C@H](C(=O)O)CC2)c1C(F)(F)F [Example 554, trans-4-(4-((2-(3,5-dichloro-4-pyridinyl)ethyl)(((1R)-2,2-dimethylcyclopropyl)methyl)carbamoyl)-5-(trifluoromethyl)-1H-pyrazol-1-yl)cyclohexanecarboxylic acid] | 7.08
2 | CC1(C)CC(CN(CCc2c(Cl)cncc2Cl)C(=O)c2cnn([C@H]3CC[C@](C)(C(=O)O)CC3)c2C(F)(F)F)C1 [Example 556, trans-4-(4-((2-(3,5-dichloro-4-pyridinyl)ethyl)((3,3-dimethylcyclobutyl)methyl)carbamoyl)-5-(trifluoromethyl)-1H-pyrazol-1-yl)-1-methylcyclohexanecarboxylic acid] | 2.4
3 | CC1(CN(CCc2c(Cl)cncc2Cl)C(=O)c2cnn([C@H]3CC[C@H](C(=O)O)CC3)c2C(F)(F)F)CCCC1 [Example 557, trans-4-(4-((2-(3,5-dichloro-4-pyridinyl)ethyl)((1-methylcyclopentyl)methyl)carbamoyl)-5-(trifluoromethyl)-1H-pyrazol-1-yl)cyclohexanecarboxylic acid] | 2.82
4 | CC1(C)[C@@H]2C[C@H](N(CC(=O)c3c(Cl)cncc3Cl)C(=O)c3cnn([C@H]4CC[C@](C)(C(=O)O)CC4)c3C(F)(F)F)C[C@@H]21 [Example 558, trans-4-(4-((2-(3,5-dichloro-4-pyridinyl)-2-oxoethyl)((1R,3r,5S)-6,6-dimethylbicyclo[3.1.0]hex-3-yl)carbamoyl)-5-(trifluoromethyl)-1H-pyrazol-1-yl)-1-methylcyclohexanecarboxylic acid] | 2.45
5 | CC1(C)CC(CN(CC(=O)c2c(Cl)cncc2Cl)C(=O)c2cnn([C@H]3CC[C@](C)(C(=O)O)CC3)c2C(F)(F)F)C1 [Example 559, trans-4-(4-((2-(3,5-dichloro-4-pyridinyl)-2-oxoethyl)((3,3-dimethylcyclobutyl)methyl)carbamoyl)-5-(trifluoromethyl)-1H-pyrazol-1-yl)-1-methylcyclohexanecarboxylic acid] | 7.08
6 | CC1(CN(CCc2c(Cl)cncc2Cl)C(=O)c2cnn([C@H]3CC[C@@H](C(=O)O)CC3)c2C(F)(F)F)CCC1 [Example 560, cis-4-(4-((2-(3,5-dichloro-4-pyridinyl)ethyl)((1-methylcyclobutyl)methyl)carbamoyl)-5-(trifluoromethyl)-1H-pyrazol-1-yl)cyclohexanecarboxylic acid] | 295
7 | CC1(CN(CCc2c(Cl)cncc2Cl)C(=O)c2cnn([C@H]3CC[C@](C)(C(=O)O)CC3)c2C(F)(F)F)CCC1 [Example 562, trans-4-(4-((2-(3,5-dichloro-4-pyridinyl)ethyl)((1-methylcyclobutyl)methyl)carbamoyl)-5-(trifluoromethyl)-1H-pyrazol-1-yl)-1-methylcyclohexanecarboxylic acid] | 3.72
8 | CC1(CN(CCc2c(Cl)cncc2Cl)C(=O)c2cnn([C@H]3CC[C@@H](C(=O)O)CC3)c2C(F)(F)F)CC1 [Example 563, cis-4-(4-((2-(3,5-dichloro-4-pyridinyl)ethyl)((1-methylcyclopropyl)methyl)carbamoyl)-5-(trifluoromethyl)-1H-pyrazol-1-yl)cyclohexanecarboxylic acid] | 204
9 | CC1(CN(CCc2c(Cl)cncc2Cl)C(=O)c2cnn([C@H]3CC[C@](C)(C(=O)O)CC3)c2C(F)(F)F)CC1 [Example 564, trans-4-(4-((2-(3,5-dichloro-4-pyridinyl)ethyl)((1-methylcyclopropyl)methyl)carbamoyl)-5-(trifluoromethyl)-1H-pyrazol-1-yl)-1-methylcyclohexanecarboxylic acid] | 4.17
10 | Cc1cc(Cl)c(C(=O)CN(CC2CC3(CC3)C2)C(=O)c2cnn([C@H]3CC[C@@H](C(=O)O)CC3)c2C(F)(F)F)c(Cl)c1 [Example 565, cis-4-(4-((2-(2,6-dichloro-4-methylphenyl)-2-oxoethyl)(spiro[2.3]hex-5-ylmethyl)carbamoyl)-5-(trifluoromethyl)-1H-pyrazol-1-yl)cyclohexanecarboxylic acid] | 18.2
11 | C[C@]1(C(=O)O)CC[C@H](n2ncc(C(=O)N(CC(=O)c3c(Cl)cccc3Cl)CC3CC4(CC4)C3)c2C(F)(F)F)CC1 [Example 566, trans-4-(4-((2-(2,6-dichlorophenyl)-2-oxoethyl)(spiro[2.3]hex-5-ylmethyl)carbamoyl)-5-(trifluoromethyl)-1H-pyrazol-1-yl)-1-methylcyclohexanecarboxylic acid] | 3.09
12 | O=C(CN(CC1CC2(CC2)C1)C(=O)c1cnn([C@H]2CC[C@H](C(=O)O)CC2)c1C(F)(F)F)c1c(Cl)cccc1Cl [Example 567, trans-4-(4-((2-(2,6-dichlorophenyl)-2-oxoethyl)(spiro[2.3]hex-5-ylmethyl)carbamoyl)-5-(trifluoromethyl)-1H-pyrazol-1-yl)cyclohexanecarboxylic acid] | 2.4
13 | Cc1cc(Cl)c(C(=O)CN(CC(C)(C)C)C(=O)c2cnn([C@H]3CC[C@](C)(C(=O)O)CC3)c2C(F)(F)F)c(Cl)c1 [Example 568, trans-4-(4-((2-(2,6-dichloro-4-methylphenyl)-2-oxoethyl)(2,2-dimethylpropyl)carbamoyl)-5-(trifluoromethyl)-1H-pyrazol-1-yl)-1-methylcyclohexanecarboxylic acid] | 3.39
14 | C[C@]1(C(=O)O)CC[C@H](n2ncc(C(=O)N(CC(=O)c3c(Cl)cccc3Cl)CC3CCC4(CC3)CC4)c2C(F)(F)F)CC1 [Example 569, trans-4-(4-((2-(2,6-dichlorophenyl)-2-oxoethyl)(spiro[25]oct-6-ylmethyl)carbamoyl)-5-(trifluoromethyl)-1H-pyrazol-1-yl)-1-methylcyclohexanecarboxylic acid] | 6760
15 | C[C@@H]1C[C@H](n2ncc(C(=O)N(CC(=O)c3c(Cl)cccc3Cl)CC3CC(C)(C)C3)c2C(F)(F)F)CC[C@@H]1C(=O)O [Example 570, (1S,2R,4R)-4-(4-((2-(2,6-dichlorophenyl)-2-oxoethyl)((3,3-dimethylcyclobutyl)methyl)carbamoyl)-5-(trifluoromethyl)-1H-pyrazol-1-yl)-2-methylcyclohexanecarboxylic acid] | 18.6
16 | Cc1cc(Cl)c(C(=O)CN(CC2(C)CCCCC2)C(=O)c2cnn([C@H]3CC[C@](C)(C(=O)O)CC3)c2C(F)(F)F)c(Cl)c1 [Example 571, trans-4-(4-((2-(2,6-dichloro-4-methylphenyl)-2-oxoethyl)((1-methylcyclohexyl)methyl)carbamoyl)-5-(trifluoromethyl)-1H-pyrazol-1-yl)-1-methylcyclohexanecarboxylic acid] | 1.26
17 | CC(C)(C)CN(C[C@H](O)c1c(Cl)cccc1Cl)C(=O)c1cnn([C@H]2CC[C@H](C(=O)O)CC2)c1C(F)(F)F [Example 573, trans-4-(4-(((2R)-2-(2,6-dichlorophenyl)-2-hydroxyethyl)(2,2-dimethylpropyl)carbamoyl)-5-(trifluoromethyl)-1H-pyrazol-1-yl)cyclohexanecarboxylic acid] | 79.4
18 | CC(C)(C)CN(C[C@@H](O)c1c(Cl)cccc1Cl)C(=O)c1cnn([C@H]2CC[C@H](C(=O)O)CC2)c1C(F)(F)F [Example 574, trans-4-(4-(((2S)-2-(2,6-dichlorophenyl)-2-hydroxyethyl)(2,2-dimethylpropyl)carbamoyl)-5-(trifluoromethyl)-1H-pyrazol-1-yl)cyclohexanecarboxylic acid] | 2570
19 | COc1cc(Cl)c(C(=O)CN(C(=O)c2cnn([C@H]3CC[C@H](C(=O)O)CC3)c2C(F)(F)F)C2CCC(C)(C)CC2)c(Cl)c1 [Example 575, trans-4-(4-((2-(2,6-dichloro-4-methoxyphenyl)-2-oxoethyl)(4,4-dimethylcyclohexyl)carbamoyl)-5-(trifluoromethyl)-1H-pyrazol-1-yl)cyclohexanecarboxylic acid] | 17
20 | C[C@]1(C(=O)O)CC[C@H](n2ncc(C(=O)N3CC4(CC=CC4)C[C@@H]3Cc3c(Cl)cncc3Cl)c2C(F)(F)F)CC1 [Example 576, trans-4-(4-(((3R)-3-((3,5-dichloro-4-pyridinyl)methyl)-2-azaspiro[4.4]non-7-en-2-yl)carbonyl)-5-(trifluoromethyl)-1H-pyrazol-1-yl)-1-methylcyclohexanecarboxylic acid] | 34.7
21 | CC1(CN(CC(=O)c2c(Cl)cncc2Cl)C(=O)c2cnn([C@H]3CC[C@](C)(C(=O)O)CC3)c2C(F)(F)F)CC1 [Example 577, trans-4-(4-((2-(3,5-dichloro-4-pyridinyl)-2-oxoethyl)((1-methylcyclopropyl)methyl)carbamoyl)-5-(trifluoromethyl)-1H-pyrazol-1-yl)-1-methylcyclohexanecarboxylic acid] | 11.7
22 | CC1(C)CC[C@@H]1N(CC(=O)c1c(Cl)cncc1Cl)C(=O)c1cnn([C@H]2CC[C@](C)(C(=O)O)CC2)c1C(F)(F)F [Example 578, trans-4-(4-((2-(3,5-dichloro-4-pyridinyl)-2-oxoethyl)((1S)-2,2-dimethylcyclobutyl)carbamoyl)-5-(trifluoromethyl)-1H-pyrazol-1-yl)-1-methylcyclohexanecarboxylic acid] | 100
23 | COc1cc(Cl)c(C(=O)CN(C(=O)c2cnn([C@H]3CC[C@](C)(C(=O)O)CC3)c2C(F)(F)F)C2CCC(C)(C)CC2)c(Cl)c1 [Example 579, trans-4-(4-((2-(2,6-dichloro-4-methoxyphenyl)-2-oxoethyl)(4,4-dimethylcyclohexyl)carbamoyl)-5-(trifluoromethyl)-1H-pyrazol-1-yl)-1-methylcyclohexanecarboxylic acid] | 4.27
